Experimental data taken from patent US20230220480A1, “IRON-SCORE AND IN VITRO METHOD FOR IDENTIFYING HIGH RISK DLBCL SUBJECTS AND THERAPEUTIC USES AND METHODS” (CENTRE NATIONAL DE LA RECHERCHE SCIENTIFIQUE (CNRS), priority 2019, published 2023).
Where two headings read alike, the source gives them in different places.

Tests used:
DLBCL cells = test: Ferroptosis, Bodipy-C11 staining and ferrostatin-1 rescue; format: cell-based, human
U2932 = test: Cell viability assay (CellTiter-Glo, ATP quantification); format: cell-based, human; conditions: cell viability by ATP quantification, read-out: 50% inhibitory concentration (IC50)
Procedure: (§1) FIG. 3: Iron chelators and Ironomycin inhibit DLBCL cell growth DLBCL cells were incubated with different concentrations of iron chelators or vehicle for 96H. Inhibitory concentration 50% (IC50) was calculated with concentration-response curve after treatment with Deferoxamin (A), Deferasirox, (B) and Ironomycin (C). Cell viability was examined using quantification of ATP assay. Data are expressed as mean percentage+/−SEM of at least three independent experiments performed in sixplicate.
(§2) The 16 DLBCL cell lines (U2932, OCI-LY-3, NU-DHL-1, OCI-LY-19, DB, SUDHL4, OCILY1, SUDHL5, DOHH2, SUDHL10, HT, RI-1, SU-DHL-6, NUDUL-1, WSU-DLCL-2 and OCI-LY-7) were purchased from the DSMZ (Leibniz-Institut DSMZ—Deutsche Sammlung von Mikroorganismen und Zellkulturen GmbH, Germany). They were maintained in RPMI-1640 (Gibco, Invitrogen), supplemented with 10% fetal bovine serum (PAA laboratory GmbH) for U2932, SUDHL-4, HT, DOHH2, SUDHL-10, RI-1, WSU-DLCL-2 cell lines, 20% FBS OCI-LY3, DB, SUDHL-5, NUDHL-1, SU-DHL-6, NUDUL-1 cell lines. OCI-LY1 and OCI-LY7 were cultured in IMDM (Gibco, Invitrogen), supplemented with 20% fetal bovine serum and OCI-LY19 was cultured in MEM alpha modified (Gibco, Invitrogen), supplemented with 20% fetal bovine serum. Cultures were maintained at 37° C. in a humidified atmosphere with 5% CO2.
(§3) DLBCL-derived cell lines were cultured for 4 days in 96-well flat-bottom microtiter plates in RPMI 1640 medium, 10% or 20% FCS (control medium) in the presence of various compounds. The number of viable cells in culture was determined using the CellTiter-Glo Luminescent Cell Viability Assay from Promega, Madison, Wis., USA using a Centro LB 960 luminometer (Berthold Technologies, Bad Wildbad, Germany).
(§4) This test is based on quantitation of the intracellular ATP present, which signals the presence of metabolically active cells. Data are expressed as the mean percentage of six replicates, normalized to the untreated control.

SUDHL-5 = test: as above; format: cell-based, human; conditions: SUDHL-5, 96H, cell viability by ATP quantification, read-out: 50% inhibitory concentration (IC50)
Procedure: as §1, §2, §3, §4

OCI-LY3 = test: as above; format: cell-based, human; conditions: cell viability by ATP quantification, read-out: 50% inhibitory concentration (IC50)
Procedure: as §1, §2, §3, §4

DB = test: as above; format: cell-based, human; conditions: cell viability by ATP quantification, read-out: 50% inhibitory concentration (IC50)
Procedure: as §1, §2, §3, §4

[1] = tested on: OCI-LY3 and DB cell lines
Description: The inventors further investigated the effect of Iron supplementation on the cell death induced by these treatments. Iron chelators concentrations were chosen according the maximal plasmatic concentration achievable in the patient (Nisbet-Brown et al., 2003).
Chaetocin was used as positive control of ROS production inhibited by GSH (Isham et al., 2007).

| Structure (SMILES) | effect on erastin (ferroptosis inductor, positive control) (DLBCL cells) | toxicity in DLBCL cells (DLBCL cells) | IC50 (U2932; Homo sapiens, U2932, 96 h) [µM] | IC50 (U2932; U2932, 96H) [µM] | IC50 (SUDHL-5; Homo sapiens, SU-DHL-5, 96 h) [µM] | IC50 (SUDHL-5) [µM] | IC50 (OCI-LY3; Homo sapiens, OCI-Ly3, 96 h) [µM] | IC50 (OCI-LY3; OCI-LY3, 96H) [µM] | IC50 (DB; 96H) [µM] | IC50 (DB; Homo sapiens, 96 h) [µM] | effect of iron supplementation on drug-induced apoptosis / cytotoxicity [1] |
| --- | --- | --- | --- | --- | --- | --- | --- | --- | --- | --- | --- |
| CCOC(=O)c1ccc(NC2CCCCC2)c(N)c1 [Ferrostatin, Ferrostatin-1, reference compound] | abrogated the effects of erastin | did not demonstrated significant toxicity | – | – | – | – | – | – | – | – | – |
| O=C(O)c1ccc(-n2nc(-c3ccccc3O)nc2-c2ccccc2O)cc1 [Deferasirox] | – | – | 4.79 | 4.79 | 1.48 | 1.48 | 9.5 | 9.5 | 13.9 | 13.9 | significantly inhibited |
| CC(=O)N(O)CCCCCNC(=O)CCC(=O)N(O)CCCCCNC(=O)CCC(=O)N(O)CCCCCN [Deferoxamine] | – | – | 2.42 | 2.28 | 1.55 | 1.55 | 3.75 | 3.75 | 3.25 | 3.24 | significantly inhibited |
